According to patent US9301945B2, “Methods for treating inflammatory conditions and states, and cancers by antagonizing NF-κB activation” (Emory University, priority 2011, dated 2016):
“Also recorded” adds a separate entry of the source.

Experiments:
[1] = system: RAW264.7 osteoclast precursors; assay: Osteoclastogenesis assay with TRAP staining; format: cell-based, mouse; conditions: RANKL 30 ng/ml, 7 days
Description: (§1) The mouse preosteoblastic cell line MC3T3-E1, clone 14 (MC3T3) and the mouse monocytic cell line RAW264.7 were purchased from the Amerimay Type Culture Collection (Manassas, Va.) and cultured as described in, for example, Li et al. (2007) J Bone Miner Res 22(5): 646-655; and Yamaguchi et al. (2009) Int J Mol Med 24(5): 671-675.
RAW264.7 cells were cultured in 96-well plates in α-MEM supplemented with 10% FBS and 100 IU/ml penicillin, and 100 μg/ml streptomycin at a density of 1×10^4 cells/well. Cells were cultured for 6 days with RANKL ([…]) pre-incubated for 10 minutes with crosslinking anti-poly-histidine antibody (2.5 μg/ml), to induce osteoclast formation. Strontium ranelate, sodium ranelate or strontium chloride were added at the indicated doses. After 6 days of culture, the cells were fixed and stained for TRAP, a specific maker of the osteoclast phenotype, using a leukocyte acid phosphatase kit. TRAP+ cells with three or more nuclei were defined as osteoclasts and were quantitated under light microscopy, and normalized for cell size based on number of nuclei. Five wells per group were averaged. Representative wells were photographed under bright field microscopy using a Nikon Eclipse TE2000-S inverted microscope equipped with a digital camera (QImaging Corp., Burnaby, BC, Mayada).
To establish an in vitro osteoclastogenesis model suitable for investigation of strontium ranelate activity, the monocytic cell line RAW 264.7 was employed and differentiated into osteoclasts by addition of the key osteoclastogenic cytokine RANKL was induced. The effect of strontium ranelate on osteoclast differentiation was tested over a dose range from 1 μM to 200 μM and cultures were stained with TRAP 7 days later and osteoclast formation quantitated.

[2] = system: MC3T3 osteoblast precursors; assay: Osteoblast differentiation / mineralization assay with Alizarin Red-S staining; format: cell-based, mouse; conditions: for osteoblast mineralization (calcium deposition, Alizarin Red-S): 200 μM, 17 days of culture, mineralizing medium, no TNFα
Description: as §1
For mineralization assays MC3T3 cells were plated in 12-well dishes at a density of 1.0×10^5 cells per well in mineralization medium (α-MEM supplemented with 10% FBS, L-ascorbic acid (100 μg/ml) and 4 mM β-glycerophosphate) as previously described in, for example, Li et al. (2007) J Bone Miner Res 22(5): 646-655; and Sugimoto et al. (2000) Int J Mol Med 5(5): 515-520. Strontium ranelate, sodium ranelate or strontium chloride were added at the indicated doses and cells replenished with fresh medium every 3 days. At 17-18 days of culture, cells were rinsed with PBS and calcium deposition was visualized by fixing the cells in 75% ethanol for 30 minutes at 4° C. followed by staining with Alizarin Red-S (40 mM, pH 6.2) for 30 minutes at room temperature. Excess stain was removed by copious washing with distilled water. Plates were imaged using a flatbed smayner (Epson Perfection 1660 Photo).
The mechanism by which strontium ranelate promotes osteoblast differentiation was investigated using an in vitro model. The in-vitro model used to investigate utilizes the MC3T3 mouse pre-osteoblast cell line that differentiates spontaneously into active osteoblasts within 21 days of culture in medium containing ascorbic acid and β-glycerophosphate (mineralizing medium).

[3] = system: TGFβ-induced Smad activation in MC3T3 cells; assay: Smad luciferase reporter assay in MC3T3 cells (TGFβ with or without TNFα); format: cell-based, mouse; conditions: 24 h; for direct effect on basal Smad activity: 500 μM; for effect on TNFα suppression of TGFβ-induced Smad activity: TGFβ 1 ng/ml, TNFα 1 ng/ml, concentrations of 100 μM and above
Excerpt: (§2) The NF-κB responsive reporter pNF-κB-Luc (BD Biosciences) and the Smad responsive reporter pGL3-Smad were used as previously described by in, for example, Li et al. (2007) J Bone Miner Res 22(5): 646-65. Briefly, reporter plasmids were transfected into MC3T3 or RAW264.7 cells (1×10^5 cells/well) using Lipofectamine 2000 reagent (Invitrogen) in α-MEM without FBS and antibiotics. Five hours later the medium was changed to α-MEM containing 10% FBS plus antibiotics and MC3T3 cells treated with TNFα (1 or 10 ng/ml as indicated) or RAW264.7 cells treated with RANKL (30 ng/ml) to stimulate NF-κB activity. In some experiments, Smad activity was induced in MC3T3 cells using TGFβ (1 ng/ml). Strontium ranelate, sodium ranelate or strontium chloride were added at the indicated doses. Cells were extracted with passive lysis buffer (Promega Corporation, Madison Wis.) 24 hours later, and luciferase activity was measured using the Luciferase Assay System of Promega, on a microplate luminometer (Turner Designs, Sunnyvale, Calif., USA).
TGFβ is a potent early osteoblast precursor commitment and recruitment factor. See, e.g., See Janssens et al. (2005) Endocr Rev 26(6): 743-774; and Tang et al. (2009) Nat Med 15(7): 757-765. It has been reported that TNFα antagonizes TGFβ-induced Smad signaling in osteoblast precursors (see, e.g., Li et al. (2007) J Bone Miner Res 22(5): 646-655) and consequently investigated whether strontium ranelate may alleviate TNFα-induced suppression of TGFβ-induced Smad signaling in preosteoblasts. MC3T3 cells were transiently transfected with a Smad responsive luciferase reporter and Smad-induced transcription quantitated following stimulation by TGFβ.

[4] = system: TNFα-induced NF-κB activation in MC3T3 osteoblast precursors; assay: NF-κB luciferase reporter assay in MC3T3 cells stimulated with TNFα; format: cell-based, mouse; conditions: 24 h
Excerpt: as §2
A major mechanism by which TNFα mediates its suppressive action on osteoblasts is through NF-κB activation. See Li et al. (2007) J Bone Miner Res 22(5): 646-655; and Nanes (2003) Gene 321: 1-15.

[5] = system: RANKL-induced NF-κB activation in RAW264.7 osteoclast precursors; assay: NF-κB luciferase reporter assay in RAW264.7 cells stimulated with RANKL; format: cell-based, mouse; conditions: RANKL 30 ng/ml, dose range 1 to 1000 μM, 24 h
Excerpt: as §2
See Caudrillier et al. (2010) Mol Pharmacol 78(4):569-576.

[6] = system: postmenopausal women; conditions: clinical trials; cited from earlier work
[7] = system: NF-κB nuclear translocation; conditions: reported by Caudrillier et al. (2010); cited from earlier work
[8] = in vitro osteoblast differentiation and mineralization assays

| Compound | RANKL-induced osteoclast formation (TRAP+ multinucleated cells) ([1]; 10 or 100 μM) | osteoblast mineralization (calcium deposition, Alizarin Red-S) [2] | direct effect on basal Smad activity [3] | effect on TNFα suppression of TGFβ-induced Smad activity [3] | TNFα-induced NF-κB activity (luciferase) ([4]; TNFα 1 ng/ml, 200 μM) | RANKL-induced NF-κB activity (luciferase) [5] | bone loss [6] | fracture risk [6] | RANKL-induced osteoclast formation (TRAP+ multinucleated cells) ([1]; 1 μM) | RANKL-induced NF-κB nuclear translocation [7] | RANKL-induced NF-κB activity (luciferase) ([5]; listed as Strontium ranelate) | effect on TNFα suppression of basal mineralization ([2]; TNFα 5 ng/ml, 10 μM) | mineralization relative to basal levels in presence of TNFα ([2]; TNFα 5 ng/ml, 100 and 200 μM) | lowest dose achieving significant biological activities [2, 8] [μM] | saturating dose [2, 8] [µM] | TNFα-induced NF-κB activity (luciferase) ([4]; high TNFα 10 ng/ml, dose range 1 to 1000 μM) | TNFα-induced NF-κB activity (luciferase) ([4]; low TNFα 1 ng/ml, dose range 1 to 1000 μM) |
| --- | --- | --- | --- | --- | --- | --- | --- | --- | --- | --- | --- | --- | --- | --- | --- | --- | --- |
| N#Cc1c(N(CC(=O)[O-])CC(=O)[O-])sc(C(=O)[O-])c1CC(=O)[O-].[Na+].[Na+].[Na+].[Na+] [sodium ranelate] | neither strontium chloride nor sodium ranelate had any effect on osteoclast formation | no stimulatory effects on osteoblast mineralization | no direct effect on basal Smad activity | significantly relieved the suppressive effect of TNFα on TGFβ-induced Smad activity | completely ineffective | – | – | – | – | – | – | – | – | – | – | – | – |
| [Cl-].[Cl-].[Sr+2] [strontium chloride] | neither strontium chloride nor sodium ranelate had any effect on osteoclast formation | no stimulatory effects on osteoblast mineralization | – | – | completely ineffective | no significant effect; also recorded: failed to suppress NF-κB activity | – | – | – | – | – | – | – | – | – | – | – |
| N#Cc1c(N(CC(=O)[O-])CC(=O)[O-])sc(C(=O)[O-])c1CC(=O)[O-].[Sr+2].[Sr+2] [strontium ranelate, distrontium salt of 2-[N,N-di(carboxymethyl)amino]-3-cyano-4-carboxymethylthiophene-5-carboxylic acid] | potently suppresses osteoclast formation at both doses | promote a robust osteoblast mineralization; also recorded: robust enhancement in mineralization | no direct effects on Smad activity | significantly alleviates the suppressive effect of TNFα on TGFβ-induced Smad activation | significantly suppressed TNFα-induced NF-κB activity | potently antagonize RANKL-induced NF-κB activation | protect against bone loss | reduce fracture risk | significantly suppressed | antagonize RANKL-induced NF-κB nuclear translocation | dose-dependently and significantly blunted RANKL-induced NF-κB activity | completely reversed the suppressive effect of TNFα on basal mineralization | potently augmented mineralization over basal levels | 1 | 100 | dose dependently suppressed TNFα-induced NF-κB activity | dose dependently suppressed TNFα-induced NF-κB activity |
